Laboratory results reported in article PMC5844530, “Fosmetpantotenate (RE-024), a phosphopantothenate replacement therapy for pantothenate kinase-associated neurodegeneration: Mechanism of action and efficacy in nonclinical models” (PLoS ONE, 2018).
Blank lines part the entries; values can stand above or below the compound they belong to.

Key:
[1] = Metabolic stability in monkey whole blood; format: in vitro ADME, cynomolgus monkey; details: monkey, blood
Protocol: Metabolic stability in blood and liver microsomes: Fosmetpantotenate or its individual diastereomers (5 μM, n = 2, 37°C) were incubated in mouse, rat, cynomolgus monkey, and human whole blood. […] Incubations of fosmetpantotenate or its individual diastereomers (1 μM, n = 2, 37°C) in pooled liver microsomes (0.25 mg protein/mL in 0.1 M phosphate buffer pH 7.4) were initiated with the addition of nicotinamide adenine dinucleotide phosphate (NADPH; 1 mM). Aliquots (100 μL) were obtained at 0, 5, 10, 20, and 40 min and added to 150 μL of 0.1% formic acid in acetonitrile-containing carbamazepine (0.5 μM) as an analytical internal standard, centrifuged, and the supernatants analyzed by LC-MS/MS.
(§1) Bioanalysis for determinations of analyte stability: Samples were analyzed using a benchtop tandem quadrupole detector (TQD) mass spectrometer (Waters Ltd, Centennial Park, Hertfordshire). […] Suitable retention and peak shape with separation of the 2 diastereomers were obtained. The chromatography column was a Phenomenex-Kinetex XB C18 (2.10 x 50 mm; 2.6 μm), with a 0.7 mL/min flow rate and a 2 μL injection volume. […] The gradient was initiated with 20% B and increased linearly, reaching 40% B at 0.6 min, followed by 50% B at 0.8 min and by 95% B at 0.9 min. Conditions were kept isocratic through 1.2 min, returned to starting conditions (20% B) at 1.25 min, and maintained at 20% B through 1.5 min before the next injection. Since fosmetpantotenate is a mixture of diastereomers which are resolved chromatographically, the fosmetpantotenate MRM area corresponds to the sum of the MRM areas of the individual diastereomers.
(§2) The percent of compound remaining was determined from the MRM area response in each sample relative to that in the T = 0 samples (normalized for internal standard). Natural log plots of the percent compound remaining over time were used to determine the t½ of compound disappearance using the relationship t½ = -0.693/λ, where λ is the slope of the natural logarithm of the percent compound remaining vs time curve.

[2] = Stability in simulated gastric fluid; format: in vitro ADME; details: simulated gi fluid, pH 1.2
Protocol: Stability in simulated gastric fluid: A stock solution of fosmetpantotenate or its individual diastereomers was prepared in 0.1% formic acid in methanol. Simulated gastric fluid, pH 1.2, was prepared with 2 g/L sodium chloride, 3.2 g/L of pepsin, and 0.7% (v/v) HCl. Gastric buffer, pH 1.2, was prepared containing 2 g/L sodium chloride and 0.7% (v/v) HCl. An appropriate aliquot of fosmetpantotenate or individual diastereomers to yield an initial concentration of 10 μM was added to both fluids, and samples were mixed at ~25°C on an orbital shaker. Aliquots (50 μL) were taken at 0, 2, and 4 h; added to 150 μL dimethyl sulfoxide (DMSO) containing an analytical internal standard; vortexed; and analyzed immediately by LC-MS/MS.
as §1, §2

[3] = Microdialysis (brain striatal dialysate) in C57Bl6 mice; details: striatal dialysate; oral dose at 700 mg/kg; all samples; 700 mg/kg
Protocol: Mice were anesthetized using isoflurane (2%, 800 mL/min O2).
For oral dosing experiments, MetaQuant microdialysis probes (regenerated cellulose membrane, BrainLink, the Netherlands) were inserted into the striatum (3 mm exposed surface). Coordinates for the tips of the probes for mice were anterior-posterior (AP) = +0.8 mm from bregma, lateral (L) = -1.7 mm from midline, and ventral (V) = -4.0 mm from dura, the toothbar set at 0 mm.
Microdialysis animal dosing and sample collection: Adult non-fasted male C57Bl6 mice (20–29 g; Harlan Laboratories, Livermore, CA), and Macaca fascicularis (4–9 kg, 3–6 yr old) were used for the experiments. For oral dosing, fosmetpantotenate was formulated as a solution in 20% hydroxypropyl-beta-cyclodextrin in 50 mM citrate buffer in water pH 5.0 and administered using a dose volume of 10 mL/kg. Mice (N = 6 serially sampled) received fosmetpantotenate as a single oral dose at 700 mg/kg and monkeys received a single oral dose at either 100 mg/kg (N = 4 serially sampled) or 300 mg/kg (N = 2 serially sampled).
Microdialysis: On the morning of the microdialysis experiment, a MetaQuant probe was inserted into the guide shaft targeting the head of the caudate nucleus and perfused at a rate of 0.15 μL/min aCSF containing 0.2% (w/v) BSA, with a carrier flow of 0.8 μL/min of ultrapure water.
A single 30 min pre-dose basal dialysate sample was collected from mice over -0.5 to 0 h, and three 30 min basal samples from monkeys over -1.5 to 0 h. Fosmetpantotenate was administered at t = 0, and 30 min dialysate samples were collected for an additional 4 h for mice and 3 h for monkeys.
Sample preparation for mouse dialysate samples: Concentrations of fosmetpantotenate, PA, and PPA in mouse dialysate were determined by Nextcea, Inc, Woburn, MA, using LC-MS/MS. Standard curves and QC samples containing fosmetpantotenate (D1 and D2) and the surrogate analytes for PA and PPA (^15N/^13C3-PA and ^15N/^13C3-PPA) were prepared fresh in 0.1% formic acid in water. Frozen study mouse dialysate samples were thawed in ice/water bath. Standards, QC samples, and thawed study dialysate samples (20 μL) were mixed with 20 μL 0.1% formic acid in water containing internal standard (50 ng/mL of ^15N/^13C3-fosmetpantotenate) and analyzed by LC-MS/MS.
LC-MS/MS analysis for mouse dialysate samples: Concentrations of fosmetpantotenate, PA, and PPA in dialysate from mice were determined by using LC-MS/MS conditions described for blood PK analysis by Nextcea, except dialysate samples were analyzed using an ACIEX API 5000 and flow rate was increased to 0.6 mL/min.
Quantitation of in vivo samples: Peak areas were integrated using Analyst software (AB Sciex, Concord, Ontario, Canada). Calibration curves for all blood samples from mouse and rat PK studies and mouse dialysate samples were prepared by plotting the analyte to internal standard (^15N/^13C3-fosmetpantotenate) peak area ratio vs concentration.

[4] = Metabolic stability in human whole blood; format: in vitro ADME; details: human, blood; for Percentage Remaining: 0 h
Protocol: (§3) Metabolic stability in blood and liver microsomes: Fosmetpantotenate or its individual diastereomers (5 μM, n = 2, 37°C) were incubated in mouse, rat, cynomolgus monkey, and human whole blood. Samples (50 μL) were taken at 0, 5, 15, 30, and 60 min. Incubations of fosmetpantotenate or its individual diastereomers (1 μM, n = 2, 37°C) in pooled liver microsomes (0.25 mg protein/mL in 0.1 M phosphate buffer pH 7.4) were initiated with the addition of nicotinamide adenine dinucleotide phosphate (NADPH; 1 mM). Aliquots (100 μL) were obtained at 0, 5, 10, 20, and 40 min and added to 150 μL of 0.1% formic acid in acetonitrile-containing carbamazepine (0.5 μM) as an analytical internal standard, centrifuged, and the supernatants analyzed by LC-MS/MS.
as §1, §2

[5] = system: porcine brain endothelial cell (PBEC) co-culture model
Protocol: (§4) Permeability studies were performed after 2 days of co-culture with rat astrocytes. […] In each filter used for transport, a paracellular marker was included as an internal control to monitor the integrity of the cell monolayer. The day of the experiment, culture medium was removed and cells on Transwell inserts were pre-incubated for 30 min with Hank's Balanced Salt Solution (HBSS) containing 20 mM Hepes pH 7.4 and 0.1% bovine serum albumin (BSA). […] Aliquots from the basal compartment were taken after 1 h; fluorescence was measured using a fluorescence detector. The permeability coefficient of the total system was calculated as follows: P[cm/s]=Vd×ΔMr/A×Md×Δt Where:
(§5) To correct for the contribution of the porous polycarbonate membrane of the filter in the absence of cells, the permeability was also determined for the cell-free system. Contribution of the endothelial cell monolayer to the permeability of the cell and filter system was determined by the following equation: 1/Pe=1/Pt-1/Pf Where the total permeability of the system is denoted as Pt, the cell-free filter as Pf, and the endothelial cell layer alone as Pe. The total resistance of the system towards passage of a substance is composed of 2 resistances in series: that of the cell monolayer and that of the filter; permeability is estimated as 1/resistance [27]. […] Mass balance was determined based on the amount of compound recovered in the donor and receiver chamber at the end of the assay relative to the amount added to the donor chamber at time 0.

[6] = Metabolic stability in mouse whole blood; format: in vitro ADME; details: mouse, blood
Protocol: as §3, §1, §2

[7] = Metabolic stability in rat whole blood; format: in vitro ADME; details: rat, blood
Protocol: as §3, §1, §2

in vitro = details: pH 7.4, In Vitro Measured Papp
Protocol: as §4, §5

liver and brain CoA = assay: Labeled experiments: incorporation of isotopically labeled fosmetpantotenate into CoA; format: in vivo, mouse; details: for Liver CoA (%) +4 AMU / Liver CoA (%) +6 AMU / Liver CoA (%) Unlabeled: 500 mg/kg PO
From the text: Fosmetpantotenate was labeled with three ^13C and one ^15N in the PA moiety and with one ^18O in the phosphate moiety, as indicated in Fig 10. The premise of this experiment is the following: if PPA incorporated into CoA originates from fosmetpantotenate metabolism, then all isotope labels (including the ^18O) will be retained in the CoA molecule, resulting in an increase in molecular weight of 6 atomic mass units (AMU) with respect to unlabeled CoA ([M+H]^+ = 774.3 vs 768.3, respectively; Fig 10, Path A). However, if fosmetpantotenate is hydrolyzed to PA, and PA is then re-phosphorylated by WT PanK to yield PPA, or if the ^18O is exchanged with water, then the ^18O would be lost in the process, resulting in a CoA molecule with a 4-AMU increase in molecular weight over unlabeled CoA ([M+H]^+ = 772.3 vs 768.3, respectively, […], Path B). CoA derived from endogenous PA/PPA will have the unchanged molecular weight ([M+H]^+ = 768.3).
Animal phase: C57BL6N mice, 8-week old and 19 to 21 g obtained from Charles River (Como, Italy) were used in these studies. One group of mice (N = 3 per time point) received a single oral dose of 500 mg/kg isotopically labeled fosmetpantotenate dissolved in 20% hydroxypropyl-β-cyclodextrin. Another set of mice (N = 8 per time point) received a direct administration of isotopically labeled fosmetpantotenate at 125 μg (25 mg/mL of aCSF containing 147 mM NaCl, 3.0 mM KCl, 1.2 mM CaCl2, and 1.2 mM MgCl2) via cannula into striatum. Brain, liver, and blood samples were collected at pre-dose, 6 h, 12 h (brain only), and 24 h, and were snap frozen in liquid nitrogen.
Two additional groups of mice (N = 6 per time point for each group) received 3 daily doses (8 am, 2 pm, and 8 pm to mimic an anticipated human dosing schedule) of isotopically labeled fosmetpantotenate at either 1.25 μg (0.625 mg/mL aCSF) or 12.5 μg (6.25 mg/mL aCSF) via ICV infusion cannula (2 μL), for up to 10 consecutive days. Brain (striatum) samples were collected at pre-dose, and at 12 h following the third dose on days 1, 3, 7, and 10, and were snap frozen in liquid nitrogen.
Sample processing: Brain (striatum) and liver tissues were homogenized in a Precellys homogenizer (Bertin technologies, Montigny-le-Bretonneux, France) with 3 volumes of water for each volume of tissue (1:4 dilution). Protein was precipitated by adding 500 μL methanol to 100 μL of homogenate (1:6 dilution), mixed well, and centrifuged. Blood cells (1 volume) were treated with 1:8 v:v water:methanol (1:10 dilution), mixed, and centrifuged. The supernatants (200 μL for brain and blood cells and 100 μL for liver) were dried under nitrogen, reconstituted with 100 μL ammonium acetate 10 mM (pH ~5), and injected (10 μL) into the LC for high resolution mass spectrometry (HRMS) analyses.
CoA determination: An Acquity UPLC (Waters) system was used. Samples were chromatographed on a Luna C18 column (50 x 2.0 mm; 5 μm), with a 0.4 mL/min flow rate and a 10 μL injection volume. The mobile phases were (A), 10 mM ammonium acetate in water, pH 6.8 and (B) acetonitrile:2-propanol (9:1; v:v). The gradient was started with 2% (B) and was increased linearly to reach 20% (B) at 5 min; the gradient was ramped to reach 90% (B) at 5.1 min and kept isocratic at 90% (B) through 7.1 min.
The detector was a Waters QTOF Synapt mass spectrometer, with an electrospray ion source operating in the positive scanning mode acquiring in full scan mode (accuracy <5 ppm). The following exact masses were determined: 768.1230 for CoA, 772.1301 for CoA +4 AMU, and 774.1344 for CoA +6 AMU.
The CoA levels obtained by MS/MS analyses were corrected for ^18O isotopic incorporation. CoA levels were not adjusted for the 1% and 2% of ^12C and ^14N, respectively, in the labeled fosmetpantotenate. […]

Compound: COC(=O)CCNC(=O)[C@H](O)C(C)(C)COP(=O)(N[C@@H](C)C(=O)OC)Oc1ccccc1 (single isomer, unassigned) [Compound D1]
Mean half-life [1]: 35 min
Percentage Remaining ([1]; 0 h): 100%
Percentage Remaining ([1]; 5 min): 88%
half-life (t½) in simulated gastric fluid [2]: > 600 min
Dialysate Conc [3]: < 4.72 nM
Mean half-life [4]: 44 min
Percentage Remaining [4]: 100%
In Vitro Measured Papp [5]: 4.8 ± 1.8 10^−6 cm/s
Mean half-life [6]: <5 min
Percentage Remaining ([6]; 0 h): 100%
Percentage Remaining ([6]; 5 min): 0%
Percentage Remaining ([6]; 0.25 h): 0%
Mean half-life [7]: <5 min
Percentage Remaining ([7]; 0 h): 100%
Percentage Remaining ([7]; 0.5 h): 0%

blood-brain barrier permeability classification [5]: moderate permeability range
Papp at 1 h (in vitro): 5.8 ± 1.9 ×10⁻⁶ cm/s
Compound: N[C@@H](Cc1ccc(O)c(O)c1)C(=O)O [L-DOPA, S-3,4-dihydroxyphenylalanine, reference compound]

Compound: COC(=O)C(C)NP(=[18O])(OCC(C)(C)C(O)C(=O)[15NH][13CH2][13CH2][13C](=O)OC)Oc1ccccc1 (centres unmarked) [isotopically-labeled fosmetpantotenate]
Brain CoA (%) +4 AMU (liver and brain CoA; 1.25 μg ICV, dose day 3): 0%
Brain CoA (%) +6 AMU (liver and brain CoA; 1.25 μg ICV, dose day 3): 0%
Brain CoA (%) Unlabeled (liver and brain CoA; 1.25 μg ICV, dose day 3): 100%
Brain CoA (%) +4 AMU (liver and brain CoA; 1.25 μg ICV, dose day 7): 5%
Brain CoA (%) +6 AMU (liver and brain CoA; 1.25 μg ICV, dose day 7): 4%
Brain CoA (%) Unlabeled (liver and brain CoA; 1.25 μg ICV, dose day 7): 91%
Brain CoA (%) +4 AMU (liver and brain CoA; 1.25 μg ICV, dose day 10): 8%
Brain CoA (%) +6 AMU (liver and brain CoA; 1.25 μg ICV, dose day 10): 6%
Brain CoA (%) Unlabeled (liver and brain CoA; 1.25 μg ICV, dose day 10): 86%
Brain CoA (%) +4 AMU (liver and brain CoA; 12.5 μg ICV, dose day 3): 8%
Brain CoA (%) +6 AMU (liver and brain CoA; 12.5 μg ICV, dose day 3): 15%
Brain CoA (%) Unlabeled (liver and brain CoA; 12.5 μg ICV, dose day 3): 77%
Brain CoA (%) +4 AMU (liver and brain CoA; 12.5 μg ICV, dose day 7): 14%
Brain CoA (%) +6 AMU (liver and brain CoA; 12.5 μg ICV, dose day 7): 27%
Brain CoA (%) Unlabeled (liver and brain CoA; 12.5 μg ICV, dose day 7): 59%
Brain CoA (%) +4 AMU (liver and brain CoA; 12.5 μg ICV, dose day 10): 16%
Brain CoA (%) +6 AMU (liver and brain CoA; 12.5 μg ICV, dose day 10): 28%
Brain CoA (%) Unlabeled (liver and brain CoA; 12.5 μg ICV, dose day 10): 56%
Brain CoA (%) +6 AMU (liver and brain CoA; 12.5 μg ICV, dose day 10, listed as isotopically labeled-fosmetpantotenate): ~ 30%
Brain CoA (%) +4 AMU (liver and brain CoA; 125 μg intrastriatally, 6 h): 2.8%
Brain CoA (%) +6 AMU (liver and brain CoA; 125 μg intrastriatally, 6 h): 36.2%
Brain CoA (%) Unlabeled (liver and brain CoA; 125 μg intrastriatally, 6 h): 61%
Brain CoA (%) +4 AMU (liver and brain CoA; 125 μg intrastriatally, 12 h): 3.6%
Brain CoA (%) +6 AMU (liver and brain CoA; 125 μg intrastriatally, 12 h): 46.4%
Brain CoA (%) Unlabeled (liver and brain CoA; 125 μg intrastriatally, 12 h): 50%
Brain CoA (%) +4 AMU (liver and brain CoA; 125 μg intrastriatally, 24 h): 4.3%
Brain CoA (%) +6 AMU (liver and brain CoA; 125 μg intrastriatally, 24 h): 50.7%
Brain CoA (%) Unlabeled (liver and brain CoA; 125 μg intrastriatally, 24 h): 45%
Brain CoA (%) +6 AMU (liver and brain CoA; 125 μg intrastriatally, 24 h, listed as isotopically labeled-fosmetpantotenate): ~ 50%
Liver CoA (%) +4 AMU (liver and brain CoA; 6 h): 1.4%
Liver CoA (%) +6 AMU (liver and brain CoA; 6 h): 40%
Liver CoA (%) Unlabeled (liver and brain CoA; 6 h): 58.6%
Liver CoA (%) +6 AMU (liver and brain CoA; 6 h, listed as isotopically labeled-fosmetpantotenate): ~ 40%
Liver CoA (%) +4 AMU (liver and brain CoA; 24 h): 8.4%
Liver CoA (%) +6 AMU (liver and brain CoA; 24 h): 34%
Liver CoA (%) Unlabeled (liver and brain CoA; 24 h): 58%
Liver CoA (%) +4 AMU (liver and brain CoA; 24 h, listed as isotopically labeled fosmetpantotenate): 8%
incorporation of fosmetpantotenate-derived PPA in brain CoA (liver and brain CoA; 500 mg/kg single oral administration): not observed

Compound: COC(=O)CCNC(=O)[C@H](O)C(C)(C)COP(=O)(N[C@@H](C)C(=O)OC)Oc1ccccc1 (single isomer, unassigned) [Compound D2]
Mean half-life [1]: 17 min
Percentage Remaining ([1]; 0 h): 100%
Percentage Remaining ([1]; 2 h): 1%
half-life (t½) in simulated gastric fluid [2]: > 600 min
Dialysate Conc [3]: < 3.36 nM
Mean half-life [4]: >95 min
Percentage Remaining [4]: 100%
In Vitro Measured Papp [5]: 4.0 ± 1.3 10^−6 cm/s
Mean half-life [6]: <5 min
Percentage Remaining ([6]; 0 h): 100%
Percentage Remaining ([6]; 5 min): 1%
Percentage Remaining ([6]; 0.25 h): 1%
Mean half-life [7]: <5 min
Percentage Remaining ([7]; 0 h): 100%
Percentage Remaining ([7]; 0.5 h): 0%
Percentage Remaining ([7]; 1 h): 0%

blood-brain barrier permeability classification [5]: low end of permeability range
Papp at 1 h (in vitro): 2.2 ± 0.7 ×10⁻⁶ cm/s
Compound: OC[C@@H](O)[C@@H](O)[C@H](O)[C@H](O)CO [Mannitol, reference compound]

Compound: Cn1c(=O)c2c(ncn2C)n(C)c1=O [Caffeine]
Papp at 1 h (in vitro): 34.3 ± 3.1 ×10⁻⁶ cm/s
